In ChEMBL document CHEMBL1128293, “4,4-Disubstituted piperidines: a new class of NK1 antagonist” (J Med Chem, 1995):

What follows are compounds tested against Substance-P receptor (Homo sapiens, UniProt P25103) (assay: Antagonistic activity against human Tachykinin receptor 1).
Assay type: functional

Chain of Substance-P receptor (P25103 whole entry): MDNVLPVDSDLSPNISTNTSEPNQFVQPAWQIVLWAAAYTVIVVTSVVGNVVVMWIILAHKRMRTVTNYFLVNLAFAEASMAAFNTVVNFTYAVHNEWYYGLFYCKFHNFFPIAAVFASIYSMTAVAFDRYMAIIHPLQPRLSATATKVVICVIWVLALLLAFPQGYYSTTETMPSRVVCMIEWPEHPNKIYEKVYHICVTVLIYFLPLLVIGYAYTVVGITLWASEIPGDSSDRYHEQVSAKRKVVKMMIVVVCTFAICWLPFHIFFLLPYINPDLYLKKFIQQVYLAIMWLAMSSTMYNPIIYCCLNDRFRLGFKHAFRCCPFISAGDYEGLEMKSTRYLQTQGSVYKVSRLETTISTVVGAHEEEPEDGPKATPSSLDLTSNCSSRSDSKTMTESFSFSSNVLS

Row | IC50 [nM] | Compound
1 | 4.6 | Clc1cc(Cl)cc(COCC2(c3ccccc3)CCNCC2)c1
2 | 9 | Cc1cc(C)cc(COCC2(c3ccccc3)CCNCC2)c1
3 | 57 | FC(F)(F)c1cccc(COCC2(c3ccccc3)CCNCC2)c1
